Where two headings read alike, the source gives them in different places.
Assays:
THR alpha = target: T1, THR alpha (Homo sapiens, UniProt P10827); experiment: HEK293T THRalpha/RXR luciferase reporter assay; format: cell-based; details: HEK293T TRE-luciferase reporter, 18-24 h; read-out: EC50 THR-α (HEK 293 Activity)
T1 construct: expressed in transfected cells; host or cells: HEK293T (ATCC CRL-3216)
T1 sequence (P10827 1-410 isoform P10827-2): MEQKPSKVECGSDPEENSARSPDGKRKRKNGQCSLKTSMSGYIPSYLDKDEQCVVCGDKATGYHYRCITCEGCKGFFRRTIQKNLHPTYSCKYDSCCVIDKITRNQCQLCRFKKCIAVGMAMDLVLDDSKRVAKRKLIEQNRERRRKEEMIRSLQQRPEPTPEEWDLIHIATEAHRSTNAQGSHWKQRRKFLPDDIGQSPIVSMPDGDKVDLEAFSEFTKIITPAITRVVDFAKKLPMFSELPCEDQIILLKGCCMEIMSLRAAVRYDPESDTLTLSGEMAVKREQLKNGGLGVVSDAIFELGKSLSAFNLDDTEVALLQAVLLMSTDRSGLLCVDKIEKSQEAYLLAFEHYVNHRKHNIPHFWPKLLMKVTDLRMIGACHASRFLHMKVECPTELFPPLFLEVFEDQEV
T1 sequence (P19793 1-462 partner): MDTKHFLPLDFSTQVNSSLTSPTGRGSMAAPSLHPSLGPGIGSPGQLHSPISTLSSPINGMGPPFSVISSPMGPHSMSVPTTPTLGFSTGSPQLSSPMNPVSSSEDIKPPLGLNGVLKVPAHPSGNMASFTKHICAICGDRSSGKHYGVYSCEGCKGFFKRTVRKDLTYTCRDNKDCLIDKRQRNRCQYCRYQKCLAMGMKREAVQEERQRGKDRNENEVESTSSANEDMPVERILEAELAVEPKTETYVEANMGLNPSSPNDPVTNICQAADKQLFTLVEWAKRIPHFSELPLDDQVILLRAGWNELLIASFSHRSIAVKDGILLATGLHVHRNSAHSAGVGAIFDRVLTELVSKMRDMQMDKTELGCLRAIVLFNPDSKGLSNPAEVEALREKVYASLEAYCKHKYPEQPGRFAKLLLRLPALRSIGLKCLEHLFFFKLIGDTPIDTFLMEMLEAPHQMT
Protocol: (§1) The purpose of this assay is to evaluate the effect of compounds on the thyroid hormone nuclear receptor pathway in HEK293T cells. To this end, HEK293T cells are transiently transfected with a luciferase reporter under the control of the thyroid response element (TRE), an RXR expression plasmid and either a THR alpha or THR beta expression plasmid. Transfected cells are stimulated with test compounds for 18-24 hours before activation of the thyroid hormone pathway is measured via a luciferase read-out.
(§2) Procedure. 24 hours prior to transfection, approximately […] HEK293T (ATCC, catalog #CRL-3216) were plated in one well of a 6-well-plate using DMEM (Hyclone, catalog #SH30022) supplemented with 10% FBS (Gibco, catalog #16000-044) and incubated overnight. Transfection complexes were prepared by mixing 12 μL of Lipofectamine 2000 (Invitrogen catalog #11668019) with 4 μg of a plasmid mixture at a ratio of 1:1:4 (TRalpha or TRbeta:RXR:TRE-Luc) in 200 μL OptiMem (Invitrogen catalog #11058-021) and added to the cells. […] Approximately 18-24 h after compound addition, 384 well plates were allowed to adjust to rt, 30 μL One-Glo (Promega catalog #E6120) is added to each well and luminescence was measured on a Perkin Elmer Enspire plate reader. Percent agonism was calculated using the following equation: 100×(sample−negative control)/(positive control−negative control).

[1] = target: T2, human thyroid receptor beta ligand-binding domain (THR-β) (Homo sapiens, UniProt P10828); experiment: TR-FRET thyroid receptor beta coactivator assay (THR biochemical assay)
T2 sequence (P10828 217-461 limits assumed): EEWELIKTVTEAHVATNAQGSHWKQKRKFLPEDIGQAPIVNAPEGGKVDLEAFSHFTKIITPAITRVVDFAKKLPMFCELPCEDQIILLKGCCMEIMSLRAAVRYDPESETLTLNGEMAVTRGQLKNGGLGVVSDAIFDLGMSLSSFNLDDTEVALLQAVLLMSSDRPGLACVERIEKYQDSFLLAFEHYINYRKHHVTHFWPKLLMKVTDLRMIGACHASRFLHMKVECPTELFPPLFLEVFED
Excerpt: (§6) The TR-FRET thyroid receptor beta coactivator assay was used with slight, optimized modifications of the manufacturer's protocol (Invitrogen). The assay uses a terbium-labeled anti-GST antibody, a glutathione-S-transferase (GST) tagged human thyroid receptor, beta or alpha, ligand-binding domain (LBD), and a fluorescein labeled SRC2-2 coactivator peptide. […] The energy transfer was detected as an increase in the fluorescence emission of the fluorescein acceptor, and a decrease in the fluorescence emission of the terbium donor. The assay was performed in a 384-well black plate in a final volume of 20 μL. Serial dilution of various test agonists was performed in DMSO (1% final DMSO concentration) and added to the test plate. Thyroid receptor beta LBD was added to the plate at a final concentration of 1 nM, followed by the mixture of the fluorescein labeled SRC2-2 coactivator peptide, and the terbium-labeled anti-GST antibody at final concentrations of 200 nM and 2 nM respectively. The assay was incubated for 1 hr at rt protected from light.

[2] = Hepatocyte stability assay, mouse; format: in vitro ADME; details: for Hepatocytes % Remaining: 1 μM, time point not given; for half-life at 1 μM: cryopreserved hepatocytes, 0.5 million cells/mL, read-out: Hepatocytes T1/2
Protocol: (§3) Cryopreserved hepatocytes were taken from the liquid nitrogen tank and thawed quickly in a 37° C. water bath. As soon as the cells pulled away from the vial wall, they were decanted into 48 mL of warm thawing (HT) medium. Cells were centrifuged for 5 minutes at 420 RPM (50 g). After removing the supernatant, the pellets were re-suspended in 4 mL of warm Dulbecco's Modified Eagle Medium (DMEM). Cell density was counted by a hemocytometer.
(§4) The assay was carried out in 96-well microtiter plates. The study compound was incubated at 1 μM with 0.5 million cells/mL hepatocytes in DMEM for 0, 60, 120, and 180 minutes at 37° C. The volume of the incubation mixture was 37 μL with a final DMSO content of 0.1%. At each time point, the incubation was stopped by the addition of 150 μL quenching solution (100% acetonitrile, 0.1% formic acid containing the internal standard bucetin at 15 nM). Subsequently, the mixtures were vortexed for 20 minutes and centrifuged at 4,000 RPM at 10° C. An aliquot of 80 μL of the supernatant was transferred to a clean 96-well plate and analyzed by LC/MS/MS. Midazolam at 1 μM with a final DMSO content of 0.1% was included as a positive control to verify the assay performance.

THR beta = target: T3, THR beta (Homo sapiens, UniProt P10828); experiment: HEK293T THRbeta/RXR luciferase reporter assay; format: cell-based
T3 construct: expressed in transfected cells; host or cells: HEK293T (ATCC CRL-3216)
T3 sequence (P10828 1-461): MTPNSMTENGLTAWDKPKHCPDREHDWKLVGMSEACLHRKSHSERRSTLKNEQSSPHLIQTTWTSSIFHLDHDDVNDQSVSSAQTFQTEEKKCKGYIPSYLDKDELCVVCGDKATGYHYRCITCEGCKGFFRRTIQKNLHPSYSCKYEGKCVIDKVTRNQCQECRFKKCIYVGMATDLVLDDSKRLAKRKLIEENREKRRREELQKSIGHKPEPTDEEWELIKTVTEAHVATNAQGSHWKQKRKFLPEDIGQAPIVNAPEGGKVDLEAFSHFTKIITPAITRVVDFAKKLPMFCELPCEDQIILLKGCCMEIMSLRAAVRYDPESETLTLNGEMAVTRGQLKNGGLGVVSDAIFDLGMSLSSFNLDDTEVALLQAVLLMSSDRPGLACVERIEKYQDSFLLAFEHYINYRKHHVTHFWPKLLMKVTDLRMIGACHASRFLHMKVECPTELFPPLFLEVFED
T3 sequence (P19793 1-462 partner): T1 sequence (P19793 1-462 partner)
Protocol: as §1, §2

[3] = Pharmacokinetics in rat (i.v.); format: in vivo, Male Sprague-Dawley rats; details: for concentration at 12 h / clearance / half-life: male, Sprague-Dawley, iv 1 mg/kg; for clearance / half-life: 60% PEG400 in water
Protocol: Male Sprague-Dawley rats were administered the study compound as an i.v. bolus dose of 1 mg/kg in a 0.500 mg/mL solution in 60% PEG400 in water.

[4] = Hepatocyte stability assay, rat; format: in vitro ADME; details: for Hepatocytes % Remaining: 1 μM, time point not given; for half-life at 1 μM: cryopreserved hepatocytes, 0.5 million cells/mL, read-out: Hepatocytes T1/2
Protocol: as §3, §4

[5] = Microsomal stability assay, human; format: in vitro ADME; details: for Liver Microsomes % Remaining: 1 μM, time point not given; for half-life at 1 μM: liver microsomes, pH 7.4, 0.5 mg/mL microsomes, read-out: Liver Microsomes T1/2
Protocol: (§5) The assay was carried out in 96-well microtiter plates. Test compounds, at a final concentration of 1 μM was incubated at 37° C. with 0.5 mg/mL liver microsomes, and +/−1 mM NADPH in 100 mM potassium phosphate, pH 7.4 buffer with 3.3 mM MgCl2. […] At each of the time points (0, 15, 30 and 60 min), incubation was stopped by adding 150 μL of the quenching solutions (100% acetonitrile, 0.1% formic acid) and subsequently the mixtures were vortexed vigorously for 20 min and centrifuged at 4,000 RPM at 4° C. The supernatants (80 μL) were transferred to a clean 96-well plate and analyzed by LC/MS/MS. Verapamil at 1 μM with a final 0.1% DMSO was included as a positive control to verify assay performance.

[6] = Hepatocyte stability assay, human; format: in vitro ADME; details: for Hepatocytes % Remaining: 1 μM, time point not given; for half-life at 1 μM: cryopreserved hepatocytes, 0.5 million cells/mL, read-out: Hepatocytes T1/2
Protocol: as §3, §4

[7] = tested on: WT C57BL/6 mice fed a high fat diet; experiment: Cholesterol reduction in a murine efficacy model; format: in vivo, mouse; details: 0.025 mg/kg BID p.o., 7 days, high fat diet C57BL/6 mice
Protocol: Model description. WT C57BL/6 mice were fed a high fat diet (D12109C) for 2 weeks. Prior to the administration of compound 1a, blood was drawn to measure the baseline lipid levels. Compound 1a was dosed daily (p.o.) for 7 days. Blood was drawn to measure lipid levels.

[8] = Pharmacokinetic profile in mouse; format: in vivo
[9] = target: human thyroid receptor alpha ligand-binding domain (THR-α) (Homo sapiens, UniProt P10827); experiment: TR-FRET thyroid receptor coactivator assay (THR biochemical assay), alpha
Excerpt: as §6

[10] = Microsomal stability assay, rat; format: in vitro ADME; details: for Liver Microsomes % Remaining: 1 μM, time point not given; for half-life at 1 μM: liver microsomes, pH 7.4, 0.5 mg/mL microsomes, read-out: Liver Microsomes T1/2
Protocol: as §5

[11] = Microsomal stability assay, mouse; format: in vitro ADME; details: for Liver Microsomes % Remaining: 1 μM, time point not given; for half-life at 1 μM: liver microsomes, pH 7.4, 0.5 mg/mL microsomes, read-out: Liver Microsomes T1/2
Protocol: as §5

Compound	Hepatocytes % Remaining [2]	half-life at 1 μM [2]	clearance ([3]; plasma)	half-life ([3]; plasma)	Hepatocytes % Remaining [4]	half-life at 1 μM [4]	Liver Microsomes % Remaining [5]	half-life at 1 μM [5]	Hepatocytes % Remaining [6]	half-life at 1 μM [6]	Liver Microsomes % Remaining [10]	half-life at 1 μM [10]	Liver Microsomes % Remaining [11]	half-life at 1 μM [11]	also measured
CC(c1cc(Oc2c(Cl)cc(-n3nc(N)c(=O)[nH]c3=O)cc2Cl)n[nH]c1=O)C1CC1 (single isomer, unassigned) [Compound 1a]	(88) %	> 6 h	2.14 mL/min/kg	5.25 h	(107) %	> 6 h	(107) %	> 1 h	(100) %	> 6 h	(98) %	> 1 h	(100) %	> 1 h	EC50 (THR alpha): 201 nM; EC50 [1]: 26 nM; THR-β Selectivity (Biochemical Activity) ([1]; THR-β over THR-α, TR-FRET assay): 9.5; in vitro THR-β selectivity compared to its enantiomer, compound 1b ([1]; biochemical assay, comparison in words): higher; EC50 (THR beta; HEK293T TRE-luciferase reporter, 18-24 h, read-out: EC50 THR-β (HEK 293 Activity)): 38 nM; THR-β Selectivity (HEK 293 Activity) (THR beta; THR-β over THR-α, HEK293T reporter): 5; Liver/Heart Concentration ([3]; at 12 h): 62 at 12 h; in vivo half-life compared to compound 2 ([3]; comparison in words): unexpectedly longer; concentration at 12 h ([3]; liver, read-out: Liver conc. 12 h): 14400 ng/g; concentration at 12 h ([3]; plasma, read-out: Plasma conc. 12 h): 336 ng/mL; reduction in cholesterol [7]: 24.5%; Liver/Heart Concentration ([8]; at 24 h): 27.6 at 24 h; clearance ([8]; in vivo): 6.3 mL/min/kg; half-life ([8]; in vivo): 2.87 h; EC50 [9]: 252 nM
C#Cc1nn(-c2cc(Cl)c(Oc3cc(C(C)C)c(=O)[nH]n3)c(Cl)c2)c(=O)[nH]c1=O [Compound 2, reference compound]	(18) %	1.18 h	9.14 mL/min/kg	1.31 h	(24) %	1.43 h	(84) %	> 1 h	(31) %	1.72 h	(85) %	> 1 h	(94) %	> 1 h	–
